Results: PubChem BioAssay AID1671316

Target: Tyrosine-protein kinase Lck (Homo sapiens) (UniProt P06239)
Assay: PubChem AID 1671316
Conditions: Z'-LYTE FRET kinase assay, recombinant LCK

Chain of Tyrosine-protein kinase Lck (Homo sapiens) (P06239 whole entry, looked up): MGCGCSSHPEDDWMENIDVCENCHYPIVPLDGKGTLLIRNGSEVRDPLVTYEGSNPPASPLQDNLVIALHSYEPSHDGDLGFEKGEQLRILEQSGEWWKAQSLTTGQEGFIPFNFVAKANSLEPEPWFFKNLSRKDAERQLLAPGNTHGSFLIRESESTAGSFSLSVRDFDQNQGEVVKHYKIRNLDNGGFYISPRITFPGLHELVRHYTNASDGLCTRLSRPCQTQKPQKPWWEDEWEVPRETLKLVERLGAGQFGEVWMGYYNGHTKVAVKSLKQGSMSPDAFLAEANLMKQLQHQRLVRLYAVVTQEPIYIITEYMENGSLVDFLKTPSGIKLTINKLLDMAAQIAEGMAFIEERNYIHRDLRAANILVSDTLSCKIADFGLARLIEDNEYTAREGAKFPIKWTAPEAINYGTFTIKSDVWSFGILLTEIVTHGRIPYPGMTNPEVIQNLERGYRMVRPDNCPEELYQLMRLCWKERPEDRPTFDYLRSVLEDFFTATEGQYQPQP

IC50: 799 nM
SMILES: COc1cc2ncnc(Nc3cccc(Cl)c3)c2cc1OC
